Structures are written as SMILES. Where two headings read alike, the source gives them in different places. A value given as a limit tells only on which side of the number the result lay.

One assay concerns the target memapsin 2 (Homo sapiens, UniProt P56817). As to the kind of experiment: Inhibition of memapsin 2 catalytic activity (Ki). The format is biochemical. The settings on record: memapsin 2, pH 4, 37° C.; read-out: M2K. The method, then: Potency of compounds were determined by measurement of their inhibition of memapsin 2 catalytic activity toward a fluorescent substrate. […] Briefly, assays were performed at pH 4, 37° C., by pre-incubation of memapsin 2 enzyme with compound for 20 minutes. Activity measure was initiated by addition of a fluorogenic substrate FS-2 (Bachem Americas, Torrance, Calif.). Fluorescent signal increase over time was measured as a rate of hydrolysis of the peptide substrate. […]

Assay [1] has as its system Aβ production in Chinese hamster ovary cells that over-express human APP695 with the London and Swedish mutations. As to the kind of experiment: Cellular Aβ IC50 determination (Aβ40 sandwich ELISA). The settings on record: Cricetulus griseus, CHO, 24 h.
Experimental: The potency of compounds against memapsin 2 catalytic activity was determined in a cellular assay of Aβ production. […] Compounds are dissolved in DMSO to concentrations near 1 mM, and diluted into culture media to a final concentration near 4 μM (final 0.4% DMSO). Compounds were diluted serially and applied to cells in multi-well plates 48 h after seeding. Incubation was continued in 5% CO2 at 37 degrees C. for 24 h. Aliquots were removed and assayed for Aβ40 content using a sandwich ELISA (BioSource International). Amount of Aβ40 over the range of concentration of compounds, relative to control incubations, were fit to a 4-parameter IC50 model.
[2] abbreviates: read-out: Cell, Aβ40, CHO cells over-expressing human APP695 (London and Swedish mutations), 24 h.

Chain of memapsin 2 (P56817 46-501): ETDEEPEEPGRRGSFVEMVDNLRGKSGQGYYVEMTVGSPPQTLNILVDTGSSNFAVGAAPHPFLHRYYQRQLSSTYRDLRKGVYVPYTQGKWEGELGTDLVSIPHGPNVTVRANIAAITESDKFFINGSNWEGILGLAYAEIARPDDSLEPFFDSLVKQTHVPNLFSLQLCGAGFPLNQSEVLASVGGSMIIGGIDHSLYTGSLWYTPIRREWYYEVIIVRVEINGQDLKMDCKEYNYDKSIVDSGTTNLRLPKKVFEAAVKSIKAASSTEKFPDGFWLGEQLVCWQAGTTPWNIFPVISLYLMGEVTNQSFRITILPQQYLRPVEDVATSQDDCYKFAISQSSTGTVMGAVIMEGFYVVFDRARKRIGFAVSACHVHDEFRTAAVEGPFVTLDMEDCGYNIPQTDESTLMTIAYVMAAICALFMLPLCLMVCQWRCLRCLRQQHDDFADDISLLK

Consider `COc1cccc(CNCC(O)C(Cc2ccccc2)NC(=O)c2cccc(C(=O)N(C)Cc3nc(C)oc3C)c2)c1` (stereo not drawn) [N1-((2,5-dimethyloxazol-4-yl)methyl)-N3-(3-hydroxy-4-(3-methoxybenzylamino)-1-phenylbutan-2-yl)-N1-methylisophthalamide], for which the Ki on memapsin 2 was below 300 nM. For the same compound, the IC50 in assay [1] (setting [2]) was below 1000 nM.

In the case of `Cc1csc(CN(C)C(=O)c2cccc(C(=O)NC(Cc3ccccc3)C(O)CNCc3cncc(CC(C)C)c3)c2)n1` (stereo not drawn) [N1-(3-hydroxy-4-((5-isobutylpyridin-3-yl)methylamino)-1-phenylbutan-2-yl)-N3-methyl-N3-((4-methylthiazol-2-yl)methyl)isophthalamide], on memapsin 2, the Ki was below 300 nM. Further, in assay [1] (setting [2]), the IC50 was below 1000 nM.

For `C#Cc1cccc(CNCC(O)C(Cc2ccccc2)NC(=O)c2cc(C(=O)NC(C)c3ccccc3)cc(N(C)S(C)(=O)=O)c2)c1` (stereo not drawn) [N1-(4-(3-ethynylbenzylamino)-3-hydroxy-1-phenylbutan-2-yl)-5-(N-methylmethylsulfonamido)-N3-(1-phenylethyl)isophthalamide], the Ki on memapsin 2 is below 300 nM. For the same compound, the IC50 in assay [1] (setting [2]) is below 1000 nM.

In the case of `CC(NC(=O)c1cc(C(=O)NC(Cc2ccccc2)C(O)CNCC2CCCN2C)cc(N(C)S(C)(=O)=O)c1)c1ccccc1` (stereo not drawn) [N1-(3-hydroxy-4-((1-methylpyrrolidin-2-yl)methylamino)-1-phenylbutan-2-yl)-5-(N-methylmethylsulfonamido)-N3-(1-phenylethyl)isophthalamide], the Ki on memapsin 2 was above 501 nM. In addition, the IC50 in assay [1] (setting [2]) is above 5000 nM.

With `Cc1csc(CN(C)C(=O)c2cccc(C(=O)NC(Cc3ccccc3)C(O)CNCc3cccc(OC(F)F)c3)c2)n1` (stereo not drawn) [N1-(4-(3-(difluoromethoxy)benzylamino)-3-hydroxy-1-phenylbutan-2-yl)-N3-methyl-N3-((4-methylthiazol-2-yl)methyl)isophthalamide], the Ki on memapsin 2 is below 300 nM. Besides, the IC50 in assay [1] (setting [2]) is below 1000 nM.

Consider `C#Cc1cccc(CNCC(O)C(Cc2ccccc2)NC(=O)c2cccc(C(=O)N(C)Cc3nc(C)cs3)c2)c1` (stereo not drawn) [N1-(4-(3-ethynylbenzylamino)-3-hydroxy-1-phenylbutan-2-yl)-N3-methyl-N3-((4-methylthiazol-2-yl)methyl)isophthalamide], for which the Ki at memapsin 2 was below 300 nM. In addition, in assay [1] (setting [2]), the IC50 was below 1000 nM.

Consider `COc1ccc(CCNCC(O)C(Cc2ccccc2)NC(=O)c2cc(C(=O)NC(C)c3ccccc3)cc(N(C)S(C)(=O)=O)c2)cc1O` (stereo not drawn) [N1-(3-hydroxy-4-(3-hydroxy-4-methoxyphenethylamino)-1-phenylbutan-2-yl)-5-(N-methylmethylsulfonamido)-N3-(1-phenylethyl)isophthalamide], for which the Ki on memapsin 2 was below 300 nM. Besides, in assay [1] (setting [2]), the IC50 lay within 1000 to 5000 nM.

Regarding `CC(NC(=O)c1cc(C(=O)NC(Cc2ccccc2)C(O)CNCc2c[nH]cn2)cc(N(C)S(C)(=O)=O)c1)c1ccccc1` (stereo not drawn) [N1-(4-((1H-imidazol-4-yl)methylamino)-3-hydroxy-1-phenylbutan-2-yl)-5-(N-methylmethylsulfonamido)-N3-(1-phenylethyl)isophthalamide], on memapsin 2, the Ki is 301 to 500 nM. In addition, the IC50 in assay [1] (setting [2]) fell in the range of 1000 to 5000 nM.

Turning to `Cc1cc(C(C)NCC(O)C(Cc2ccccc2)NC(=O)c2cc(C(=O)NC(C)c3ccccc3)cc(N(C)S(C)(=O)=O)c2)on1` (stereo not drawn) [N1-(3-hydroxy-4-(1-(3-methylisoxazol-5-yl)ethylamino)-1-phenylbutan-2-yl)-5-(N-methylmethylsulfonamido)-N3-(1-phenylethyl)isophthalamide], at memapsin 2, the Ki was below 300 nM. The IC50 in assay [1] (setting [2]) is below 1000 nM.

As to `COc1ccccc1CCNCC(O)C(Cc1ccccc1)NC(=O)c1cccc(C(=O)N(C)Cc2nc(C)cs2)c1` (stereo not drawn) [N1-(3-hydroxy-4-(2-methoxyphenethylamino)-1-phenylbutan-2-yl)-N3-methyl-N3-((4-methylthiazol-2-yl)methyl)isophthalamide], the Ki at memapsin 2 was above 501 nM. The IC50 in assay [1] (setting [2]) was in the range of 1000 to 5000 nM.

Consider `COc1cncc(CNCC(O)C(Cc2ccccc2)NC(=O)c2cccc(C(=O)N(C)Cc3nc(C)cs3)c2)c1` (stereo not drawn) [N1-(3-hydroxy-4-((5-methoxypyridin-3-yl)methylamino)-1-phenylbutan-2-yl)-N3-methyl-N3-((4-methylthiazol-2-yl)methyl)isophthalamide], for which the Ki at memapsin 2 is below 300 nM. Also, the IC50 in assay [1] (setting [2]) was below 1000 nM.

For `CC(NC(=O)c1cc(C(=O)NC(Cc2ccccc2)C(O)CNCc2nccn2COCC[Si](C)(C)C)cc(N(C)S(C)(=O)=O)c1)c1ccccc1` (stereo not drawn) [N1-(3-hydroxy-1-phenyl-4-((1-((2-(trimethylsilyl)ethoxy)methyl)-1H-imidazol-2-yl)methylamino)butan-2-yl)-5-(N-methylmethylsulfonamido)-N3-(1-phenylethyl)isophthalamide], at memapsin 2, the Ki is 301 to 500 nM. Moreover, the IC50 in assay [1] (read-out: Cell) was above 5000 nM.

For the compound `CC(NC(=O)c1cc(C(=O)NC(Cc2ccccc2)C(O)CNCc2cccc(OC(F)(F)F)c2)cc(N(C)S(C)(=O)=O)c1)c1ccccc1` (stereo not drawn) [N1-(3-hydroxy-1-phenyl-4-(3-(trifluoromethoxy)benzylamino)butan-2-yl)-5-(N-methylmethylsulfonamido)-N3-(1-phenylethyl)isophthalamide], the Ki at memapsin 2 was below 300 nM. For the same compound, the IC50 in assay [1] (setting [2]) is below 1000 nM.

On to `COc1cccc(CNCC(O)C(Cc2ccccc2)NC(=O)c2cc(C(=O)NCc3nc(CO)co3)cc(N(C)S(C)(=O)=O)c2)c1` (stereo not drawn) [N1-(3-hydroxy-4-(3-methoxybenzylamino)-1-phenylbutan-2-yl)-N3-((4-(hydroxymethyl)oxazol-2-yl)methyl)-5-(N-methylmethylsulfonamido)isophthalamide], for which the Ki on memapsin 2 was in the range of 301 to 500 nM. In addition, the IC50 in assay [1] (setting [2]) was above 5000 nM.

As for `COc1ccc(S(=O)(=O)NCC(O)C(Cc2ccccc2)NC(=O)c2cc(C(=O)NC(C)c3ccccc3)cc(N(C)S(C)(=O)=O)c2)cc1` (stereo not drawn) [N1-(3-hydroxy-4-(4-methoxyphenylsulfonamido)-1-phenylbutan-2-yl)-5-(N-methylmethylsulfonamido)-N3-(1-phenylethyl)isophthalamide], the Ki on memapsin 2 is above 501 nM. Besides, the IC50 in assay [1] (setting [2]) was in the range of 1000 to 5000 nM.

In the case of `COc1cccc(CNCC(O)C(Cc2cc(F)cc(F)c2)NC(=O)c2cccc(C(=O)N(C)Cc3nc(C)cs3)c2)c1` (stereo not drawn) [N1-(1-(3,5-difluorophenyl)-3-hydroxy-4-(3-methoxybenzylamino)butan-2-yl)-N3-methyl-N3-((4-methylthiazol-2-yl)methyl)isophthalamide], on memapsin 2, the Ki was below 300 nM. For the same compound, the IC50 in assay [1] (setting [2]) was below 1000 nM.

For the compound `COc1cccc(CNCC(O)C(Cc2ccccc2OC)NC(=O)c2cc(C(=O)NC(C)c3ccccc3)cc(N(C)S(C)(=O)=O)c2)c1` (stereo not drawn) [N1-(3-hydroxy-4-(3-methoxybenzylamino)-1-(2-methoxyphenyl)butan-2-yl)-5-(N-methylmethylsulfonamido)-N3-(1-phenylethyl)isophthalamide], the Ki on memapsin 2 was 301 to 500 nM. Besides, in assay [1] (setting [2]), the IC50 is above 5000 nM.

For `COc1cccc(CNCC(O)C(Cc2ccccc2)NC(=O)c2cc(CS(C)(=O)=O)cc(C(=O)NC(C)c3ccccc3)c2)c1` (stereo not drawn) [N1-(3-hydroxy-4-(3-methoxybenzylamino)-1-phenylbutan-2-yl)-5-(methylsulfonylmethyl)-N3-(1-phenylethyl)isophthalamide], on memapsin 2, the Ki was below 300 nM. Besides, the IC50 in assay [1] (setting [2]) is below 1000 nM.

On to `COc1cccc(CN2CCC(CNCC(O)C(Cc3ccccc3)NC(=O)c3cc(C(=O)NC(C)c4ccccc4)cc(N(C)S(C)(=O)=O)c3)CC2)c1` (stereo not drawn) [N1-(3-hydroxy-4-((1-(3-methoxybenzyl)piperidin-4-yl)methylamino)-1-phenylbutan-2-yl)-5-(N-methylmethylsulfonamido)-N3-(1-phenylethyl)isophthalamide], for which the Ki at memapsin 2 is above 501 nM. The IC50 in assay [1] (setting [2]) is above 5000 nM.

Consider `COc1ccc(CCNCC(O)C(Cc2ccccc2)NC(=O)c2cc(C(=O)NC(C)c3ccccc3)cc(N(C)S(C)(=O)=O)c2)cc1OC` (stereo not drawn) [N1-(4-(3,4-dimethoxyphenethylamino)-3-hydroxy-1-phenylbutan-2-yl)-5-(N-methylmethylsulfonamido)-N3-(1-phenylethyl)isophthalamide], for which, on memapsin 2, the Ki was below 300 nM. Further, in assay [1] (setting [2]), the IC50 was below 1000 nM.

For `COc1cccc(CNCC(O)C(Cc2ccccc2)NC(=O)c2cc(C(=O)NC(C)c3nc(C)co3)cc(N(C)S(C)(=O)=O)c2)c1` (stereo not drawn) [N1-(3-hydroxy-4-(3-methoxybenzylamino)-1-phenylbutan-2-yl)-5-(N-methylmethylsulfonamido)-N3-(1-(4-methyloxazol-2-yl)ethyl)isophthalamide], the Ki on memapsin 2 was below 300 nM. Also, the IC50 in assay [1] (setting [2]) is below 1000 nM.

As for `CCOc1cncc(CNCC(O)C(Cc2ccccc2)NC(=O)c2cccc(C(=O)N(C)Cc3nc(C)cs3)c2)c1` (stereo not drawn) [N1-(4-((5-ethoxypyridin-3-yl)methylamino)-3-hydroxy-1-phenylbutan-2-yl)-N3-methyl-N3-((4-methylthiazol-2-yl)methyl)isophthalamide], at memapsin 2, the Ki is below 300 nM. Further, the IC50 in assay [1] (setting [2]) is below 1000 nM.

As for `CCOc1cncc(CNCC(O)C(Cc2ccccc2)NC(=O)c2cc(C(=O)NC(C)c3ccccc3)cc(N(C)S(C)(=O)=O)c2)c1` (stereo not drawn) [N1-(4-((5-ethoxypyridin-3-yl)methylamino)-3-hydroxy-1-phenylbutan-2-yl)-5-(N-methylmethylsulfonamido)-N3-(1-phenylethyl)isophthalamide], the Ki on memapsin 2 was below 300 nM. For the same compound, the IC50 in assay [1] (setting [2]) is below 1000 nM.

As for `COc1cccc(CNCC(O)C(Cc2ccccc2)NC(=O)c2cccc(C(=O)N(Cc3nc(C)cs3)C(C)C)c2)c1` (stereo not drawn) [N1-(3-hydroxy-4-(3-methoxybenzylamino)-1-phenylbutan-2-yl)-N3-isopropyl-N3-((4-methylthiazol-2-yl)methyl)isophthalamide], the Ki on memapsin 2 was below 300 nM. Besides, the IC50 in assay [1] (setting [2]) is below 1000 nM.

Source of the values: patent US7504420B2, “Compounds which inhibit beta-secretase activity and methods of use” (CoMentis, Inc., priority 2005, dated 2009).
